Experimental data as given in patent US20250339569A1, “CARBONIC ANHYDRASE IX LIGANDS” (priority 2021, published 2025).
Starred links: 1 amine or outer side, 2 acyl side, 3 side chain; linkers in the order of their positions; H or OH if unused. Positions of bridges follow the written chain, without caps; N, C: chain ends. Non-standard residues stand in square brackets, D forms with d. Residues, ends and D or L forms follow the SMILES beside them. No end group written: not given here. *: point of attachment. Phe(3-NHCO(CH2)3SO2NH2) = N[C@@H](Cc1cccc(NC(=O)CCCS(N)(=O)=O)c1)C(=O)O; NH(1-deoxy-D-glucityl) = OC[C@@H](O)[C@@H](O)[C@H](O)[C@@H](O)CN*; DOTA = O=C(O)CN1CCN(CC(=O)O)CCN(CC(=O)*)CCN(CC(=O)O)CC1; X66 = NC(=O)CCC(=O)Nc1cccc(C[C@H](N[*:1])C(=O)[*:2])c1; X54 = O=C(Nc1cccc(C[C@H](N[*:1])C(=O)[*:2])c1)c1cnco1; Phe(4-NH2) = Nc1ccc(C[C@H](N)C(=O)O)cc1; mXylylene = c1cc(C[*:1])cc(C[*:2])c1; X2 = O=C(CN1CCC(N[*:1])CC1)[*:2]; tBuAla = CC(C)(C)C[C@H](N)C(=O)O; X1 = O=C(CN1CCN([*:1])CC1)[*:2]; X42 = c1ccc2cc(CN*)ccc2c1; AEEA = NCCOCCOCC(=O)O; Bz = O=C(c1ccccc1)*

Target: T1, CAIX-expressing human HT-29 colorectal cancer cells (Homo sapiens, UniProt Q16790)
T1 construct: CAIX-expressing human HT-29 colorectal cancer cells; host or cells: HT-29 human colorectal cancer cells
Assay: FACS binding assay (IC50 determination, competition with tracer 3BP-2776 or 3BP-4149)
Settings: not given
Outline: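 HT-29 cells in FACS buffer (PBS, 1% FCS) at 500.000 cells/ml were exposed to compounds competing with a labelled tracer, with biotinylated compounds detected by 1 μg/mL APC-streptavidin for 30 min on ice. APC/Cy5 median fluorescence was read by flow cytometry and IC50 derived by 4PL fit.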

For `CC(C)C[C@@H]1NC(=O)[C@H](Cc2ccc(NC(=O)c3ccccc3)cc2)NC(=O)[C@H](CC(=O)O)NC(=O)[C@H]2CCCN2C(=O)[C@H](CCC(=O)O)NC(=O)[C@@H](NC(=O)[C@H](Cc2ccc(O)cc2)NC(=O)[C@@H](NC(=O)CN2CCC(NC(=O)CN3CCN(CC(=O)O)CCN(CC(=O)O)CCN(CC(=O)O)CC3)CC2)C(C)C)CSCc2cccc(c2)CSC[C@@H](C(N)=O)NC(=O)[C@H](CO)NC(=O)[C@H](Cc2c[nH]c3ccccc23)NC(=O)[C@H]([C@@H](C)O)NC1=O` [3BP-4171] ({DOTA}-[X2]VYCE[dP]D[Phe(4-NH2)](Bz)LTWSC-NH2; linker 4-13 via mXylylene), the IC50 was 100 to 794 nM.

Same assay, conditions: FACS binding assay, HT-29 cells, competition with tracer 3BP-2776 (10 nM, biotin-labeled), 4° C., 1 hour

For “3BP-4178 ([dP]PVYCE[dP]DWLTWSC; linker 5-14 via mXylylene; not fully specified (bridges))”, the “pIC50 category (activity)” value was “A (pIC50 values >8.0)”.

Same assay, conditions: FACS binding assay, HT-29 cells, competition with tracer 3BP-2776 (10 nM, biotin-labeled), 4° C., 1 hour; read-out: pIC50 category (activity) (converted)

`CC(C)C[C@@H]1NC(=O)[C@H](Cc2cccc(NC(=O)c3cnco3)c2)NC(=O)[C@H](CC(=O)O)NC(=O)[C@H]2CCCN2C(=O)[C@H](CCC(=O)O)NC(=O)[C@@H](NC(=O)[C@H](Cc2ccc(O)cc2)NC(=O)[C@@H](NC(=O)CN2CCC(NC(=O)CN3CCN(CC(=O)O)CCN(CC(=O)O)CCN(CC(=O)O)CC3)CC2)C(C)C)CSCc2cccc(c2)CSC[C@@H](C(N)=O)NC(=O)[C@H](CO)NC(=O)[C@H](Cc2c[nH]c3ccccc23)NC(=O)[C@H]([C@@H](C)O)NC1=O` [3BP-4239] ({DOTA}-[X2]VYCE[dP]D[X54]LTWSC-NH2; linker 4-13 via mXylylene) and `CC(C)C[C@@H]1NC(=O)[C@H](Cc2cccc(NC(=O)CCC(N)=O)c2)NC(=O)[C@H](CC(=O)O)NC(=O)[C@H]2CCCN2C(=O)[C@H](CCC(=O)O)NC(=O)[C@@H](NC(=O)[C@H](Cc2ccc(O)cc2)NC(=O)[C@@H](NC(=O)CN2CCC(NC(=O)CN3CCN(CC(=O)O)CCN(CC(=O)O)CCN(CC(=O)O)CC3)CC2)C(C)C)CSCc2cccc(c2)CSC[C@@H](C(N)=O)NC(=O)[C@H](CO)NC(=O)[C@H](Cc2c[nH]c3ccccc23)NC(=O)[C@H]([C@@H](C)O)NC1=O` [3BP-4238] ({DOTA}-[X2]VYCE[dP]D[X66]LTWSC-NH2; linker 4-13 via mXylylene) fall in the same range of IC50: 10 to 79.4 nM for the first, 10 to 79.4 nM for the second.

`CC(C)C[C@@H]1NC(=O)[C@H](Cc2c[nH]c3ccccc23)NC(=O)[C@H](CC(=O)O)NC(=O)[C@H]2CCCN2C(=O)[C@H](CCC(=O)NC[C@H](O)[C@@H](O)[C@H](O)[C@H](O)CO)NC(=O)[C@@H](NC(=O)[C@H](Cc2ccc(O)cc2)NC(=O)[C@@H](NC(=O)CN2CCC(NC(=O)CN3CCN(CC(=O)O)CCN(CC(=O)O)CCN(CC(=O)O)CC3)CC2)C(C)C)CSCc2cccc(c2)CSC[C@@H](C(N)=O)NC(=O)[C@H](CO)NC(=O)[C@H](Cc2c[nH]c3ccccc23)NC(=O)[C@H]([C@@H](C)O)NC1=O` [3BP-4113] ({DOTA}-[X2]VYCE(NH(1-deoxy-D-glucityl))[dP]DWLTWSC-NH2; linker 4-13 via mXylylene) and `CC(C)C[C@@H]1NC(=O)[C@H](Cc2c[nH]c3ccccc23)NC(=O)[C@H](CCC(=O)NCc2ccc3ccccc3c2)NC(=O)[C@H]2CCCN2C(=O)[C@H](CCC(=O)O)NC(=O)[C@@H](NC(=O)[C@H](Cc2ccc(O)cc2)NC(=O)[C@@H](NC(=O)CN2CCC(NC(=O)CN3CCN(CC(=O)O)CCN(CC(=O)O)CCN(CC(=O)O)CC3)CC2)C(C)C)CSCc2cccc(c2)CSC[C@@H](C(N)=O)NC(=O)[C@H](CO)NC(=O)[C@H](Cc2c[nH]c3ccccc23)NC(=O)[C@H]([C@@H](C)O)NC1=O` [3BP-4215, DOTA-APAc-Val-Tyr-[Cys(3MeBn)-Glu-pro-Glu(NHMe2Nph)-Trp-Leu-Thr-Trp-Ser-Cys]-NH2] ({DOTA}-[X2]VYCE[dP]E(X42)WLTWSC-NH2; linker 4-13 via mXylylene) cannot be ordered by IC50: less than 10 nM for the first, less than 10 nM for the second.

First: CC(C)C[C@@H]1NC(=O)[C@H](Cc2ccc(O)cc2)NC(=O)[C@H](CC(=O)O)NC(=O)[C@H]2CCCN2C(=O)[C@H](CCC(=O)O)NC(=O)[C@@H](NC(=O)[C@H](Cc2ccc(O)cc2)NC(=O)[C@@H](NC(=O)CN2CCC(NC(=O)CN3CCN(CC(=O)O)CCN(CC(=O)O)CCN(CC(=O)O)CC3)CC2)C(C)C)CSCc2cccc(c2)CSC[C@@H](C(N)=O)NC(=O)[C@H](CO)NC(=O)[C@H](Cc2c[nH]c3ccccc23)NC(=O)[C@H]([C@@H](C)O)NC1=O [3BP-4136] ({DOTA}-[X2]VYCE[dP]DYLTWSC-NH2; linker 4-13 via mXylylene)
Second: CC(C)C[C@@H]1NC(=O)[C@H](Cc2c[nH]c3ccccc23)NC(=O)[C@H](CO)NC(=O)[C@H]2CCCCNC(=O)CC[C@H](NC1=O)C(=O)N[C@@H](Cc1c[nH]c3ccccc13)C(=O)N[C@@H](CO)C(=O)N[C@H](C(N)=O)CSCc1cccc(c1)CSC[C@H](NC(=O)[C@H](Cc1ccc(O)cc1)NC(=O)[C@@H](NC(=O)CN1CCC(NC(=O)CN3CCN(CC(=O)O)CCN(CC(=O)O)CCN(CC(=O)O)CC3)CC1)C(C)C)C(=O)N[C@@H](CCC(=O)O)C(=O)N2 [3BP-4115] ({DOTA}-[X2]VYCE[dK]SWLEWSC-NH2; linker 4-13 via mXylylene; lactam 6-10)
The IC50 of the first is lower: less than 10 nM for the first, 10 to 79.4 nM for the second.

With `CC(C)C[C@@H]1NC(=O)[C@H](Cc2cccc(NC(=O)CCCS(N)(=O)=O)c2)NC(=O)[C@H](CC(=O)O)NC(=O)[C@H]2CCCN2C(=O)[C@H](CCC(=O)O)NC(=O)[C@@H](NC(=O)[C@H](CCCNC(=N)N)NC(=O)CN2CCN(C(=O)CN3CCN(CC(=O)O)CCN(CC(=O)O)CCN(CC(=O)O)CC3)CC2)CSCc2cccc(c2)CSC[C@@H](C(N)=O)NC(=O)[C@H](CO)NC(=O)[C@H](Cc2c[nH]c3ccccc23)NC(=O)[C@H]([C@@H](C)O)NC1=O` [3BP-4451] ({DOTA}-[X1]RCE[dP]D[Phe(3-NHCO(CH2)3SO2NH2)]LTWSC-NH2; linker 3-12 via mXylylene) the IC50 was less than 10 nM.

Same assay, conditions: FACS competition on HT-29 cells, Tracer ID 3BP-2776 (10 nM, biotin-labeled), 4° C., 1 hour; read-out: pIC50 category (activity) (converted)

`CC(=O)N[C@H](C(=O)N[C@@H](Cc1ccc(O)cc1)C(=O)N[C@H]1CSCc2cccc(c2)CSC[C@@H](C(N)=O)NC(=O)[C@H](C)NC(=O)[C@H](Cc2c[nH]c3ccccc23)NC(=O)[C@H]([C@@H](C)O)NC(=O)[C@H](CC(C)(C)C)NC(=O)[C@H](Cc2c[nH]c3ccccc23)NC(=O)[C@H](CC(=O)O)NC(=O)[C@H]2CCCN2C(=O)[C@H](CCC(=O)O)NC1=O)C(C)C` [3BP-3490] (Ac-VYCE[dP]DW[tBuAla]TWAC-NH2; linker 3-12 via mXylylene) and `CC(=O)N[C@H](C(=O)N[C@@H](Cc1ccc(O)cc1)C(=O)N[C@H]1CSCc2cccc(c2)CSC[C@@H](C(N)=O)NC(=O)[C@H](CCC(N)=O)NC(=O)[C@H](Cc2c[nH]c3ccccc23)NC(=O)[C@H]([C@@H](C)O)NC(=O)[C@H](CC(C)C)NC(=O)[C@H](Cc2c[nH]c3ccccc23)NC(=O)[C@H](CC(=O)O)NC(=O)CNC(=O)[C@H](C)NC1=O)C(C)C` [3BP-3052] (Ac-VYCAGDWLTWQC-NH2; linker 3-12 via mXylylene) cannot be ordered by IC50: less than 10 nM for the first, less than 10 nM for the second.

`CC(=O)N[C@H](C(=O)N[C@@H](Cc1ccc(O)cc1)C(=O)N[C@H]1CSCc2cccc(c2)CSC[C@@H](C(=O)NCCOCCOCC(=O)N[C@@H](CCCCNC(=O)CN2CCN(CC(=O)O)CCN(CC(=O)O)CCN(CC(=O)O)CC2)C(N)=O)NC(=O)[C@H](C)NC(=O)[C@H](Cc2c[nH]c3ccccc23)NC(=O)[C@H]([C@@H](C)O)NC(=O)[C@H](CC(C)C)NC(=O)[C@H](Cc2c[nH]c3ccccc23)NC(=O)[C@H](CC(=O)O)NC(=O)[C@H]2CCCN2C(=O)[C@H](CCC(=O)O)NC1=O)C(C)C` [3BP-3474, Ac-Val-Tyr-[Cys(3MeBn)-Glu-pro-Asp-Trp-Leu-Thr-Trp-Ala-Cys]-O2Oc-Lys(DOTA)-NH2] (Ac-VYCE[dP]DWLTWAC[AEEA]K(DOTA)-NH2; linker 3-12 via mXylylene) and `CC(C)C[C@@H]1NC(=O)[C@H](Cc2ccccc2)NC(=O)[C@H](CC(=O)O)NC(=O)[C@H]2CCCN2C(=O)[C@H](CCC(=O)O)NC(=O)[C@@H](NC(=O)[C@H](Cc2ccc(O)cc2)NC(=O)[C@@H](NC(=O)CN2CCC(NC(=O)CN3CCN(CC(=O)O)CCN(CC(=O)O)CCN(CC(=O)O)CC3)CC2)C(C)C)CSCc2cccc(c2)CSC[C@@H](C(N)=O)NC(=O)[C@H](CO)NC(=O)[C@H](Cc2c[nH]c3ccccc23)NC(=O)[C@H]([C@@H](C)O)NC1=O` [3BP-3596] ({DOTA}-[X2]VYCE[dP]DFLTWSC-NH2; linker 4-13 via mXylylene) cannot be ordered by IC50: less than 10 nM for the first, less than 10 nM for the second.

`CC(=O)N[C@H](C(=O)N[C@H](Cc1ccc(O)cc1)C(=O)N[C@H]1CSCc2cccc(c2)CSC[C@@H](C(N)=O)NC(=O)[C@H](CCC(N)=O)NC(=O)[C@H](Cc2c[nH]c3ccccc23)NC(=O)[C@H]([C@@H](C)O)NC(=O)[C@H](CC(C)C)NC(=O)[C@H](Cc2c[nH]c3ccccc23)NC(=O)[C@H](CC(=O)O)NC(=O)CNC(=O)[C@H](CCC(=O)O)NC1=O)C(C)C` [3BP-3044] (Ac-V[dY]CEGDWLTWQC-NH2; linker 3-12 via mXylylene) and `CC(=O)N[C@H](C(=O)N[C@@H](Cc1ccc(O)cc1)C(=O)N[C@H]1CSCc2cccc(c2)CSC[C@@H](C(N)=O)NC(=O)[C@H](CCC(N)=O)NC(=O)[C@H](Cc2c[nH]c3ccccc23)NC(=O)[C@H]([C@@H](C)O)NC(=O)[C@H](CC(C)C)NC(=O)[C@H](Cc2c[nH]c3ccccc23)NC(=O)[C@H](CC(=O)O)NC(=O)CNC(=O)[C@@H](CCC(=O)O)NC1=O)C(C)C` [3BP-3045] (Ac-VYC[dE]GDWLTWQC-NH2; linker 3-12 via mXylylene) fall in the same range of IC50: 100 to 794 nM for the first, 100 to 794 nM for the second.

`CC(=O)N[C@H](C(=O)N[C@@H](Cc1ccc(O)cc1)C(=O)N[C@H]1CSCc2cccc(c2)CSC[C@@H](C(N)=O)NC(=O)[C@H](CO)NC(=O)[C@H](Cc2c[nH]c3ccccc23)NC(=O)[C@@H]2CCCCNC(=O)CC[C@H](NC(=O)[C@H]3CCCN3C(=O)[C@H](CCC(=O)O)NC1=O)C(=O)N[C@@H](Cc1c[nH]c3ccccc13)C(=O)N[C@@H](CC(C)C)C(=O)N2)C(C)C` [3BP-3901] (Ac-VYCE[dP]EWLKWSC-NH2; linker 3-12 via mXylylene; lactam 6-9) gave an IC50 of 10 to 79.4 nM.
